US20080194506A1, “Oligodeoxyribonuleotides of 4000-10000 Dalton for Treating” (Gentium SPA, priority 2005, published 2008)

How the values were obtained:
serum VEGF = assay: Serum VEGF levels in patients after allogeneic stem cell transplantation; format: in vivo, human; conditions: cohort of 17 treated patients after allogeneic SCT
[1] = system: rat aorta endothelial cells; assay: Aortic ring assay: sprouting of rat aorta endothelial cells in Matrigel; format: cell-based; conditions: applied on a daily basis, FIG. 2
[2] = system: transdifferentiating ELC (TuDC-ELC); assay: Matrigel tube formation assay of TuDC-ELC; format: cell-based, human
Excerpt: We have recently developed a model for an alternative pathway of tumor angiogenesis. […] These endothelial-like cells (ELC) can transdifferentiate from tumor-associated dendritic cells under specific culture conditions (11). Briefly, monocytes are elutriated from leukapheresis products of healthy human blood donors and cultured in the presence of granulocyte-macrophage-colony stimulating factor (GM-CSF) and interleukin 4 (IL-4) to stimulate the differentiation of dendritic cells (DC). In addition, cells are treated with a cocktail specifically released by tumor cells (M-CSF, IL.6 and lactate, Gottfried et al., manuscript submitted) to promote the outgrowth of tumor-associated dendritic cells (TuDC).
These TuDC-ELC acquire the phenotype of endothelial cells (FactorVIII related Ag, vWF) while they lose monocytic (CD14) and dendritic cell markers (CD1a). […] In addition, they are able to form tube-like structures in Matrigel™, an in vitro assay of angiogenesis.
The Matrigel™ assay is one of the most popular and widely used in vitro angiogenesis assays (22). […]
By the help of a complimentary software from the NIH (Image J, http://rsb.info.nih.gov/ij/), we are able to quantify these effects, the total length of tubes and the area of the photograph are assessed, the microvascular density (MVD) is then given in total length/area [pix-1].

[3] = system: microvascular endothelial cells (HMEC); assay: Matrigel tube formation assay of HMEC; format: cell-based, human; conditions: single addition, 10 μg/mL, 7 days, FIG. 1A
Procedure: (§1) The Matrigel™ assay is one of the most popular and widely used in vitro angiogenesis assays (22). Matrigel™ is a semisolid synthetic mixture of extracellular matrix proteins which simulate the matrix that physiologically exist beneath the endothelial cell wall of a blood vessel. When the cells of question are seeded onto this matrix in microscopic chamber slides, they are activated to form tubular structures in 3-7 days, but only in the case that they have an endothelial phenotype. Therefore, this assay is suitable to show the potential capacity of cells to give rise to a tumor vasculature.
(§2) TuDC-ELC and mature, differentiated endothelial cells, [human umbilical vene (HUVEC) or microvascular endothelial cells (HMEC) as “stable” controls] were incubated in the presence or absence of oligotide or Defibrotide (10 μg/mL each) for 7 days.

[4] = system: activated p70S6 kinase (p-p70S6); assay: Western Blot analyses of activated p70S6 kinase; format: cell-based; conditions: preliminary evidence
[5] = system: human microvascular endothelial cells; assay: In vitro angiogenesis assay: microvascular endothelial cells vascularizing through a layer of dermal fibroblasts; format: cell-based
Procedure: The aortic ring assay investigates macrovascular endothelial cells. But often, the tumor vasculature consists of microvascular endothelial cells. Therefore, a third in vitro angiogenesis assay was performed on the basis of microvascular endothelial cells vascularizing through a layer of dermal fibroblasts after 9-11 days of culture. These vessel-like structures can subsequently be visualized by staining for CD31 and vWF.

[6] = system: human umbilical vene (HUVEC) endothelial cells; assay: Matrigel tube formation assay of HUVEC; format: cell-based; conditions: single addition, 10 μg/mL, 7 days, FIG. 1A
Procedure: as §1, §2

human gastric carcinoma = assay: Dorsal skin chamber assay, human gastric carcinoma mouse model (Xenograft system); format: in vivo; conditions: treated vs control tumors; first data
Excerpt: We are currently performing a dorsal skin chamber assay (14) that investigates the effect of defibrotide in a highly vascularized human gastric carcinoma mouse model (Xenograft system). […] This set of experiments will be reproduced in due time.

defibrotide
serum VEGF levels (serum VEGF): striking decline | prevention of sprouting of rat aorta endothelial cells in Matrigel [1]: ~100% | tube formation of transdifferentiating ELC (TuDC-ELC) in Matrigel ([2]; 10 μg/mL, 7 days, clinical and subclinical concentrations): can inhibit tube formation | microvascular density (MVD) of TuDC-ELC, total length/area ([2]; Image J quantification, p=0.02 TTEST, FIG. 1B): significantly (p=0.02, TTEST) downregulates MVD | tube formation potential of HMEC [3]: not affected | effect on activated p70S6 kinase (p-p70S6) [4]: downregulating effect | angiogenesis of human microvascular endothelial cells ([5]; daily application, 9-11 days of culture, FIGS. 3A and B): can also block angiogenesis | most effective concentration for blocking angiogenesis ([5]; human microvascular endothelial cells, FIGS. 3A and B): around 10 μg/mL | angiogenesis of human microvascular endothelial cells ([5]; single application): could not significantly block angiogenesis | tube formation potential of HUVEC [6]: not affected | microvascular density (MVD) of tumors (human gastric carcinoma): lower than that of control tumors
